# Laboratory results reported in US12503475B2 (Centessa Pharmaceuticals (UK) Limited, priority 2020, dated 2025).
# Target: T1, human orexin type 2 receptor (hOX2R) (Homo sapiens, UniProt O43614)
# T1 construct: expressed in transfected cells
# T1 sequence (O43614 1-444): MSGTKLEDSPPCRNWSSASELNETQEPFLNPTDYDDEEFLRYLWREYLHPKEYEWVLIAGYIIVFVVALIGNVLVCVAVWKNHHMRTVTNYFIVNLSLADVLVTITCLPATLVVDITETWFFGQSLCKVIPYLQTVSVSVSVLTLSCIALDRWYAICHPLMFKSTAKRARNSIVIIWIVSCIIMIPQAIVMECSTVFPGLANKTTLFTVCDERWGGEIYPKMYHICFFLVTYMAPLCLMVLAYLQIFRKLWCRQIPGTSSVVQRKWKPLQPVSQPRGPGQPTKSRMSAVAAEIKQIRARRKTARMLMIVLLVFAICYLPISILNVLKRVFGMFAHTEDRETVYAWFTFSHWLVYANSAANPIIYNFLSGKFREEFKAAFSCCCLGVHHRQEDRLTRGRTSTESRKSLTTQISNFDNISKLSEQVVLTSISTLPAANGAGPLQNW
# Experiment: Measurement of orexin type 2 receptor agonist activity (FLIPR calcium fluorescence)
# Format: cell-based
# Conditions: CHO cells expressing hOX2R, FLIPR calcium fluorescence; for EC50: read-out: hOx2 pEC50 (converted); for Emax: CHO, read-out: hOx2 Emax (%)
# Procedure: The biological activity of the compounds of the present disclosure may be determined in cells stably expressing either orexin type 2 or orexin type 1 receptor. […] The agonist activity of a compound of the present disclosure may be determined by fluorescence value.
# Stable cell line generation.
# Measurement of orexin type 2 receptor agonist activity. […] As used herein, E. indicates the value at 10 μM concentration when orexin A is converted to a full agonist (maximum value of agonist activity. 100%).
Structure (SMILES),EC50 [nM],Emax [%]
"CN(C)C(=O)N1CC2(CC2)[C@H](NS(C)(=O)=O)[C@@H]1Cc1cccc(-c2cc(F)cc(F)c2)c1 (racemic) [Compound 296, 6-((3′,5′-difluoro-[1,1′-biphenyl]-3-yl)methyl)-N,N-dimethyl-7-(methylsulfonamido)-5-azaspiro[2.4]heptane-5-carboxamide]",10 to 100,90 to 100
CC(C)NC(=O)N1CC2(CC2)[C@H](NS(C)(=O)=O)[C@@H]1Cc1cccc(-c2ccccc2)c1F [Compound 85],0.0794 to 1,90 to 100
"O=C([C@H]1CCO1)N1CC2(CC2)[C@H](NS(=O)(=O)C2COC2)[C@@H]1Cc1cccc(-c2ccccc2)c1 [Compound 77, N-((6S,7S)-6-([1,1′-biphenyl]-3-ylmethyl)-5-((R)-oxetane-2-carbonyl)-5-azaspiro[2.4]heptan-7-yl)oxetane-3-sulfonamide]",10 to 100,90 to 100
"CCCS(=O)(=O)N[C@@H]1[C@H](Cc2cccc(-c3ccccc3)c2)N(C(=O)[C@H]2CCO2)CC12CC2 [Compound 310, N-((6S,7S)-6-([1,1′-biphenyl]-3-ylmethyl)-5-((R)-oxetane-2-carbonyl)-5-azaspiro[2.4]heptan-7-yl)propane-1-sulfonamide]",10 to 100,90 to 100
"C[C@@H](NC(=O)N1CC2(CC2)[C@H](NS(=O)(=O)CF)[C@@H]1Cc1cccc(-c2ccccc2)c1F)C(F)(F)F [Compound 209, (6S,7S)-6-((2-fluoro-[1,1′-biphenyl]-3-yl)methyl)-7-((fluoromethyl)sulfonamido)-N-((R)-1,1,1-trifluoropropan-2-yl)-5-azaspiro[2.4]heptane-5-carboxamide]",0.0794 to 1,90 to 100
"CN(C)S(=O)(=O)N[C@@H]1[C@H](Cc2cccc(-c3ccccc3)c2F)N(C(=O)[C@H](O)C(F)(F)F)CC12CC2 [Compound 119, N-((6S,7S)-6-((2-fluoro-[1,1′-biphenyl]-3-yl)methyl)-5-((S)-3,3,3-trifluoro-2-hydroxypropanoyl)-5-azaspiro[2.4]heptan-7-yl)-N,N-dimethylsulfuric diamide]",0.0794 to 1,90 to 100
"CS(=O)(=O)NC1C(Cc2cccc(-c3ccccc3)c2F)N(C(=O)N2CC(F)C2)CC12CC2 (racemic) [Compound 45, N-(6-((2-fluoro-[1,1′-biphenyl]-3-yl)methyl)-5-(3-fluoroazetidine-1-carbonyl)-5-azaspiro[2.4]heptan-7-yl)methanesulfonamide]",1 to 10,90 to 100
"CNS(=O)(=O)N[C@@H]1[C@H](Cc2cccc(-c3ccccc3)c2F)N(C(=O)[C@H]2CCO2)CC12CC2 [Compound 65, N-((6S,7S)-6-((2-fluoro-[1,1′-biphenyl]-3-yl)methyl)-5-((R)-oxetane-2-carbonyl)-5-azaspiro[2.4]heptan-7-yl)-N-methylsulfuric diamide]",1 to 10,90 to 100

# The remaining lines, values ahead:
EC50 [nM],Emax [%],Structure (SMILES)
0.0794 to 1,90 to 100,C[C@@H](F)C(=O)N1CC2(CC2)[C@H](NS(=O)(=O)CF)[C@@H]1Cc1cc(F)cc(-c2cccc(F)c2)c1F [Compound 394]
1 to 10,90 to 100,"COCCN(C)C(=O)N1CC2(CC2)[C@H](NS(C)(=O)=O)[C@@H]1Cc1cccc(-c2ccccc2)c1F [Compound 326, (6S,7S)-6-((2-fluoro-[1,1′-biphenyl]-3-yl)methyl)-N-(2-methoxyethyl)-N-methyl-7-(methylsulfonamido)-5-azaspiro[2.4]heptane-5-carboxamide]"
1 to 10,90 to 100,"N#CC1(C(=O)N2CC3(CC3)[C@H](NS(=O)(=O)C(F)F)[C@@H]2Cc2cccc(-c3cc(F)cc(F)c3)c2F)CCC1 [Compound 381, N-((6S,7S)-5-(1-cyanocyclobutane-1-carbonyl)-6-((2,3′,5′-trifluoro-[1,1′-biphenyl]-3-yl)methyl)-5-azaspiro[2.4]heptan-7-yl)-1,1-difluoromethanesulfonamide]"
